Results: US7754687B2, “Methods of inhibiting viral infection” (Mount Sinai School of Medicine, priority 2005, dated 2010)
Read-outs that look alike come from different tables or passages of the source. No end group written: not given here.

Legend:
CMV promoter = experiment: Luciferase reporter under CMV promoter (VVCW/LBE) in macrophages; format: cell-based; conditions: 200 ng/ml at 48-72 hr post infection; 24 hr post treatment
Description: (§1) Inhibition of HIV-1 Gene Transcription by ProTα is not Selective for the HIV-1 LTR Promoter. To determine whether the effect of ProTα on HIV-1 gene transcription is specific for the LTR promoter, the present inventors used two other HIV derived lentiviral vectors carrying luciferase reporter genes under control of PGK (phosphoglycerate kinase-VVPW/LBE) or CMV (cytomegalovirus-VVCW/LBE) promoters (kindly provided by Dr. L. Gusella). Macrophages were infected with HIV-1VSV carrying the luciferase gene, under the control of LTR, PGK or CMV promoters. At 48-72 hr post infection when viral integration is completed, ProTα at 200 ng/ml was introduced.

STAT1 [1] = experiment: STAT1 phosphorylation western blot, primary macrophages; format: cell-based; conditions: 15 min, ProTα 1 μg/mL or 10% conditioned medium
Procedure: (§2) Whole cell extract from macrophages and Hela cells treated with 10% cell conditioned medium from CD8+ cells, ProTα or medium was prepared by adding 1×SDS Sample buffer (100 ul per 6 well plate). For western blot analyses, protein samples were treated with 2.5 M DTT or 2.5% 2-mercaptoethanol and separated by SDS-Page 4-20% Tris-Glycine gradient gels (Novex-Invitrogen Calif.). Following separation by SDS-Page, the gel was blotted onto PVDF membrane (Novex-Invitrogen San-Diego, Carlsbad, Calif.). After blocking with 5% nonfat milk the membrane was incubated with 1/1000 dilution of anti P-STAT-1 (Tyr701) (Cell Signaling Technology) for 24 hr at 4° C. in PBS. The membrane was washed in PBS with 0.05% Tween 20 and treated with 1/2000 diluted anti-rabbit antibodies labeled with horseradish […] (Amersham pharmacia UK). The membrane was washed in PBS with 0.05% tween 20 and Western blot chemiluminescence reagent was added.
(§3) To establish whether ProTα also induces STAT1 activation in primary macrophages and HeLa-CD4 cells, such cells were briefly (15 min) incubated with ProTα protein at 1 μg/mL or 10% cell conditioned medium after incubation for 2 hr in serum free medium to reduce baseline phosphorylation. A western blot of the electrophoresed total lysate of treated and untreated cells was probed with an antibody specific for STAT1 phosphorylated at tyrosine 701 (FIG. 8).

[2] = system: HIV-1 LTR controlled luciferase reporter gene mRNA; experiment: Real time RT-PCR of luciferase reporter gene mRNA in HIV-1VSV infected macrophages; format: cell-based; conditions: 200 ng/ml for 24 hr; 72 hr post infection; vs control medium
Procedure: (§4) RNA was isolated from macrophages infected with HIVVSV for 72 hr and treated with medium alone or ProTα 24 hr post treatment using Absolutely RNA kit (Stratagene). Real time PCR was done at Mount Sinai Medical Center Core Facility using following primers: […]
for Luciferase reporter gene: sense-[…] antisense-[…].
(§5) Each assay was performed in triplicate. Quantification of each PCR product was expressed relative to -actin.

IkBα protein = IkBα protein level in the nucleus of macrophages; format: cell-based; conditions: 1 hr post treatment, data not presented
STAT1 [3] = experiment: STAT1 phosphorylation western blot, HeLa-CD4 cells; format: cell-based; conditions: 15 min, ProTα 1 μg/mL or 10% conditioned medium
Procedure: as §2, §3

IkBα mRNA = IkBα mRNA by real time PCR in macrophages carrying integrated HIV; format: cell-based; conditions: data not presented
Procedure: as §4
for IkB sense-[…] anisense-[…].
as §5

HIV-1JRFL [4] = format: cell-based; conditions: HeLa CD4+/CCR5+ cells
PGK promoter = experiment: Luciferase reporter under PGK promoter (VVPW/LBE) in macrophages; format: cell-based; conditions: 200 ng/ml at 48-72 hr post infection; 24 hr post treatment
Description: as §1

type one and/or two IFNs = experiment: Induction of type one and/or two IFN mRNA in primary macrophages; conditions: 24 hr post treatment, data not presented
HIVVSV = format: cell-based, HIV-1; conditions: 200 ng/ml
[5] = system: dual tropic HIV-1 primary isolate; experiment: Replication of dual tropic HIV-1 primary isolate in primary macrophages, p24; format: cell-based; conditions: 200 ng/ml, p24 day 15
HIV-1JRFL [6] = format: cell-based; conditions: Hos CD4+/CCR5+ cells; data not presented
[7] = system: CCR5 tropic HIV-1 primary isolates; experiment: Replication of CCR5 HIV-1 primary isolate in primary macrophages, p24; format: cell-based; conditions: 200 ng/ml, p24 day 15
STAT2 = STAT2 phosphorylation in treated macrophages; conditions: supernatant 10% by volume, data not presented
HIV-1BaL = HIV-1BaL replication in primary macrophages, p24 antigen ELISA; format: cell-based
HIV-1VSV = format: cell-based
[8] = system: HIV-1 lab isolates (HIV-1BaL and HIV-1IIIB) or HIV-1 primary isolates; experiment: HIV-1 replication in primary CD4+ cells (lab and primary isolates); format: cell-based; conditions: primary CD4+ cells; data not presented
mC2,C3-Ba-L = experiment: Replication of LTR-mutated mC2,C3-Ba-L in primary macrophages, p24; format: cell-based, HIV-1; conditions: 200 ng/ml, p24 days 6-10, 3 donors
HIV-1JRFL [9] = format: cell-based; conditions: primary macrophages
HDAC = experiment: Effect of sodium butyrate on ProTα activity in macrophages carrying integrated HIV-1; format: cell-based; conditions: data not presented
Description: Moreover, both IkBα and ProTα can bind to HDAC and form intracellular complexes with DNA (51, 52). Therefore investigating the functions of these transcriptional factors and studying the competitive binding of HDAC to IkB and/or ProTα and chromatin immunoprecipitation studies may help to further reveal how ProTα inhibits HIV-1 transcription in primary macrophages.

**Q.** What does the source list for prothymosin alpha [ProTα]?
**A.** expression of luciferase reporter gene from CMV promoter (CMV promoter): inhibited expression; phosphorylation state of STAT1 (Tyr701) (STAT1 [1]): no effect; suppression of LTR controlled luciferase reporter gene mRNA levels [2]: 80%; level of IkBα protein in the nucleus (IkBα protein): increased substantially; phosphorylation state of STAT1 (Tyr701) (STAT1 [3]): no effect; induction of IkBα mRNA (IkBα mRNA): 10 fold; anti-HIV-1JRFL activity (HIV-1JRFL [4]): did not, however, exhibit anti-HIV-1JRFL activity; expression of luciferase reporter gene from PGK promoter (PGK promoter): inhibited expression; induction of type one and/or two IFN mRNA (type one and/or two IFNs): no induction; reduction of expression of the reporter gene luciferase (HIVVSV; DCs treated 2 hr post infection): 90%; inhibition of integrated proviral HIV-1 (HIVVSV; DCs treated 72 hr post infection): 65-75%; replication of dual tropic HIV-1 primary isolate [5]: inhibited replication; anti-HIV-1JRFL activity (HIV-1JRFL [6]): did not, however, exhibit anti-HIV-1JRFL activity; replication of CCR5 HIV-1 primary isolate [7]: inhibited replication; STAT 2 phosphorylation (STAT2): did not induce STAT 2 phosphorylation; reduction of viral p24 antigen (HIV-1BaL; 2 ng/mL rProTα, primary macrophages): greater than 80%; inhibition of wild type (LTR) virus (HIV-1BaL; primary macrophages, 200 ng/ml, p24 days 6-10, 3 donors): 90-95%; suppression of HIV-1BaL replication as measured by HIV-1 p24 antigen (HIV-1BaL; primary macrophages, dose response): dosage dependent suppression; effect on HIV-1 gene expression (luciferase) (HIV-1VSV): inhibit HIV-1 gene expression; expression of luciferase reporter gene from LTR promoter (HIV-1VSV): inhibited expression; reduction of HIV-1 gene expression (HIV-1VSV): 80%; suppression of replication [8]: varying from 30-40% suppression to no suppression; suppression of mutated (LTR) virus replication (mC2,C3-Ba-L): 60-80%; inhibition of the luciferase reporter gene of HIV-1JRFL (HIV-1JRFL [9]; dose response): dose dependent inhibition; concentration at which anti-HIV-1 activity was exhibited (as low as) (HIV-1JRFL [9]; luciferase 72 hr post infection): 20 ng/mL

**Q.** `Cc1cn([C@H]2C[C@H](N=[N+]=[N-])[C@@H](CO)O2)c(=O)[nH]c1=O` [AZT, azidothymidine, reference compound] was tested. Which “effect on HIV-1 gene expression (luciferase)” value (HIV-1VSV) did it give?
**A.** no effect

**Q.** With `CCCC(=O)[O-].[Na+]` [sodium butyrate] as the compound, how does the “reduction in ProTα activity” value (HDAC) read?
**A.** 70-80%

**Q.** Which results are given for `O=C(O)C(=O)CC(=O)c1cccn1Cc1ccc(F)cc1` [L-731 988, reference compound]?
**A.** suppression of virus replication by integrase inhibitor (HIV-1BaL; added at 2 hr post infection, replication competent viruses): did not completely suppress virus replication; effect on HIV-1 gene expression (luciferase) (HIV-1VSV): no effect

**Q.** For “thymosin alpha 1 (Ac-SDAAVDTSSEITTKDLKEKKEVVEEAEN; UniProt P06454 2-29, looked up, fragment) [Tα1, chemically synthesized peptide homologous to the first 28 amino acids of ProTα, reference compound]”, which “activity against the HIVJRFL expressing luciferase reporter gene” value (HIV-1JRFL [9]; up to 1 μg/mL) is on record?
**A.** no activity
